{
  "source": "PubChem BioAssay (NCI)",
  "test_in_all_cases": "DTP human tumour cell line panel, 48 h",
  "key": {"UO-31 renal": {"system": "UO-31 renal"}, "NCI-H522 lung": {"system": "NCI-H522 lung"}, "HCT-15 colon": {"system": "HCT-15 colon"}, "A498 renal": {"system": "A498 renal"}, "COLO 205 colon": {"system": "COLO 205 colon"}, "RPMI-8226 leukemia": {"system": "RPMI-8226 leukemia"}, "HT29 colon": {"system": "HT29 colon"}, "MOLT-4 leukemia": {"system": "MOLT-4 leukemia"}, "SF-268 CNS": {"system": "SF-268 CNS"}, "DMS 273 small cell lung": {"system": "DMS 273 small cell lung"}, "SF-295 CNS": {"system": "SF-295 CNS"}, "NCI-H23 lung": {"system": "NCI-H23 lung"}, "SK-OV-3 ovarian": {"system": "SK-OV-3 ovarian"}, "SN12C renal": {"system": "SN12C renal"}, "HCC-2998 colon": {"system": "HCC-2998 colon"}, "XF 498 CNS": {"system": "XF 498 CNS"}, "IGROV1 ovarian": {"system": "IGROV1 ovarian"}, "HOP-62 NSCLC": {"system": "HOP-62 NSCLC"}, "HOP-18 NSCLC": {"system": "HOP-18 NSCLC"}, "SK-MEL-5 melanoma": {"system": "SK-MEL-5 melanoma"}, "SW-620 colon": {"system": "SW-620 colon"}, "MALME-3M melanoma": {"system": "MALME-3M melanoma"}, "OVCAR-5 ovarian": {"system": "OVCAR-5 ovarian"}, "K-562 leukemia": {"system": "K-562 leukemia"}, "U251 CNS": {"system": "U251 CNS"}, "SNB-19 CNS": {"system": "SNB-19 CNS"}, "RXF 393 renal": {"system": "RXF 393 renal"}, "TK-10 renal": {"system": "TK-10 renal"}, "CCRF-CEM leukemia": {"system": "CCRF-CEM leukemia"}, "DMS 114 small cell lung": {"system": "DMS 114 small cell lung"}, "M19-MEL melanoma": {"system": "M19-MEL melanoma"}, "KM12 colon": {"system": "KM12 colon"}, "A549 NSCLC": {"system": "A549 NSCLC"}, "SNB-78 CNS": {"system": "SNB-78 CNS"}, "LOX IMVI melanoma": {"system": "LOX IMVI melanoma"}, "SNB-75 CNS": {"system": "SNB-75 CNS"}, "UACC-62 melanoma": {"system": "UACC-62 melanoma"}, "OVCAR-4 ovarian": {"system": "OVCAR-4 ovarian"}, "HL-60(TB) leukemia": {"system": "HL-60(TB) leukemia"}, "DLD-1 colon": {"system": "DLD-1 colon"}, "OVCAR-3 ovarian": {"system": "OVCAR-3 ovarian"}, "SF-539 CNS": {"system": "SF-539 CNS"}, "M14 melanoma": {"system": "M14 melanoma"}, "NCI-H226 lung": {"system": "NCI-H226 lung"}, "OVCAR-8 ovarian": {"system": "OVCAR-8 ovarian"}, "EKVX NSCLC": {"system": "EKVX NSCLC"}, "786-0 renal": {"system": "786-0 renal"}, "ACHN renal": {"system": "ACHN renal"}, "UACC-257 melanoma": {"system": "UACC-257 melanoma"}, "CAKI-1 renal": {"system": "CAKI-1 renal"}, "SK-MEL-2 melanoma": {"system": "SK-MEL-2 melanoma"}, "SK-MEL-28 melanoma": {"system": "SK-MEL-28 melanoma"}},
  "note": "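A five-concentration, 48-hour dose response in 96-well plates underlies each endpoint, interpolated linearly between surrounding concentrations. TGI is the concentration that stops growth completely.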",
  "data": [
    {"compound": "Nc1c(-c2nc3ccccc3[nH]2)sc(=S)n1-c1ccc(Cl)cc1", "values": [
      {"measurement": "TGI", "setting": "UO-31 renal", "result": 55.7, "unit": "µM"},
      {"measurement": "TGI", "setting": "NCI-H522 lung", "result": 58.1, "unit": "µM"},
      {"measurement": "TGI", "setting": "HCT-15 colon", "result": 61.8, "unit": "µM"},
      {"measurement": "TGI", "setting": "A498 renal", "result": 88.2, "unit": "µM"},
      {"measurement": "TGI", "setting": "COLO 205 colon", "result": "> 100", "unit": "µM"},
      {"measurement": "TGI", "setting": "RPMI-8226 leukemia", "result": 90.2, "unit": "µM"},
      {"measurement": "TGI", "setting": "HT29 colon", "result": 42.6, "unit": "µM"},
      {"measurement": "TGI", "setting": "MOLT-4 leukemia", "result": "> 100", "unit": "µM"},
      {"measurement": "TGI", "setting": "SF-268 CNS", "result": 54.9, "unit": "µM"},
      {"measurement": "TGI", "setting": "DMS 273 small cell lung", "result": 39.8, "unit": "µM"},
      {"measurement": "TGI", "setting": "SF-295 CNS", "result": 43.6, "unit": "µM"},
      {"measurement": "TGI", "setting": "NCI-H23 lung", "result": 81.8, "unit": "µM"},
      {"measurement": "TGI", "setting": "SK-OV-3 ovarian", "result": 56.9, "unit": "µM"},
      {"measurement": "TGI", "setting": "SN12C renal", "result": 50.1, "unit": "µM"},
      {"measurement": "TGI", "setting": "HCC-2998 colon", "result": 48.8, "unit": "µM"},
      {"measurement": "TGI", "setting": "XF 498 CNS", "result": 52.4, "unit": "µM"},
      {"measurement": "TGI", "setting": "IGROV1 ovarian", "result": 73.2, "unit": "µM"},
      {"measurement": "TGI", "setting": "HOP-62 NSCLC", "result": 47.3, "unit": "µM"},
      {"measurement": "TGI", "setting": "HOP-18 NSCLC", "result": 38.6, "unit": "µM"},
      {"measurement": "TGI", "setting": "SK-MEL-5 melanoma", "result": 67.6, "unit": "µM"},
      {"measurement": "TGI", "setting": "SW-620 colon", "result": "> 100", "unit": "µM"},
      {"measurement": "TGI", "setting": "MALME-3M melanoma", "result": "> 100", "unit": "µM"},
      {"measurement": "TGI", "setting": "OVCAR-5 ovarian", "result": "> 100", "unit": "µM"},
      {"measurement": "TGI", "setting": "K-562 leukemia", "result": "> 100", "unit": "µM"},
      {"measurement": "TGI", "setting": "U251 CNS", "result": 53.9, "unit": "µM"},
      {"measurement": "TGI", "setting": "SNB-19 CNS", "result": 57.4, "unit": "µM"},
      {"measurement": "TGI", "setting": "RXF 393 renal", "result": 41.3, "unit": "µM"},
      {"measurement": "TGI", "setting": "TK-10 renal", "result": 56.1, "unit": "µM"},
      {"measurement": "TGI", "setting": "CCRF-CEM leukemia", "result": "> 100", "unit": "µM"},
      {"measurement": "TGI", "setting": "DMS 114 small cell lung", "result": 42, "unit": "µM"},
      {"measurement": "TGI", "setting": "M19-MEL melanoma", "result": 84.2, "unit": "µM"},
      {"measurement": "TGI", "setting": "KM12 colon", "result": 78.3, "unit": "µM"},
      {"measurement": "TGI", "setting": "A549 NSCLC", "result": 51.1, "unit": "µM"},
      {"measurement": "TGI", "setting": "SNB-78 CNS", "result": 66.3, "unit": "µM"},
      {"measurement": "TGI", "setting": "LOX IMVI melanoma", "result": 50.5, "unit": "µM"},
      {"measurement": "TGI", "setting": "SNB-75 CNS", "result": 47.6, "unit": "µM"},
      {"measurement": "TGI", "setting": "UACC-62 melanoma", "result": 48.4, "unit": "µM"},
      {"measurement": "TGI", "setting": "OVCAR-4 ovarian", "result": 40.4, "unit": "µM"},
      {"measurement": "TGI", "setting": "HL-60(TB) leukemia", "result": "> 100", "unit": "µM"},
      {"measurement": "TGI", "setting": "DLD-1 colon", "result": "> 100", "unit": "µM"},
      {"measurement": "TGI", "setting": "OVCAR-3 ovarian", "result": 36.4, "unit": "µM"},
      {"measurement": "TGI", "setting": "SF-539 CNS", "result": 37.2, "unit": "µM"},
      {"measurement": "TGI", "setting": "M14 melanoma", "result": 82.7, "unit": "µM"},
      {"measurement": "TGI", "setting": "NCI-H226 lung", "result": 52.2, "unit": "µM"},
      {"measurement": "TGI", "setting": "OVCAR-8 ovarian", "result": 54.5, "unit": "µM"},
      {"measurement": "TGI", "setting": "EKVX NSCLC", "result": 67.4, "unit": "µM"},
      {"measurement": "TGI", "setting": "786-0 renal", "result": 36.7, "unit": "µM"},
      {"measurement": "TGI", "setting": "ACHN renal", "result": 43, "unit": "µM"},
      {"measurement": "TGI", "setting": "UACC-257 melanoma", "result": 65.6, "unit": "µM"},
      {"measurement": "TGI", "setting": "CAKI-1 renal", "result": 54.6, "unit": "µM"},
      {"measurement": "TGI", "setting": "SK-MEL-2 melanoma", "result": 63.8, "unit": "µM"},
      {"measurement": "TGI", "setting": "SK-MEL-28 melanoma", "result": "> 100", "unit": "µM"}
    ]}
  ]
}
